# Assay results published in paper PMC12645437, “Orthogonal IMiD-Degron Pairs Induce Selective Protein Degradation in Cells” (ACS Chemical Biology, 2025).
# Where “and” joins values, the source holds several entries; their conditions need not be identical. Equal entries are not always repeated.
# How the values were obtained:
# [1] = target: WEIK mutant ZF degron fused to EGFP (Homo sapiens, UniProt Q96SW2+Q9UKT9, N149E/Q147W/Q150I/S154K); assay: Ratiometric EGFP:mCherry flow cytometry degradation assay, 18 h
# Sequence of WEIK mutant ZF degron fused to EGFP (Q9UKT9 130-189 Q147W/N149E/Q150I/S154K): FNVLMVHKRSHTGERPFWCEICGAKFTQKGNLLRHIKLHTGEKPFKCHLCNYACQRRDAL
# Sequence of WEIK mutant ZF degron fused to EGFP (Q96SW2 whole entry, the tested form may be a part): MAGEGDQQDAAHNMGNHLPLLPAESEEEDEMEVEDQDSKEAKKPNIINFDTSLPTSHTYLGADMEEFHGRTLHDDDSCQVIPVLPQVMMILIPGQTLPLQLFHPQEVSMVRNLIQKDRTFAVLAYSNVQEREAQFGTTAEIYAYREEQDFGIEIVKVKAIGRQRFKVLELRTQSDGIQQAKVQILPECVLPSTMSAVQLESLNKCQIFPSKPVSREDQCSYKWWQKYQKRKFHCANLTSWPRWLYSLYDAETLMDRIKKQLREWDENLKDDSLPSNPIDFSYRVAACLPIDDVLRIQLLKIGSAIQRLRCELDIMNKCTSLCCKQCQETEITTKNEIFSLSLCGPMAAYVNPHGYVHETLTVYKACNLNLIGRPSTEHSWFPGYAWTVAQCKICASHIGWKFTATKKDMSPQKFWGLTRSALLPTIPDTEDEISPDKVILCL
# Sequence of WEIK mutant ZF degron fused to EGFP (Q16531 whole entry partner, the tested form may be a part): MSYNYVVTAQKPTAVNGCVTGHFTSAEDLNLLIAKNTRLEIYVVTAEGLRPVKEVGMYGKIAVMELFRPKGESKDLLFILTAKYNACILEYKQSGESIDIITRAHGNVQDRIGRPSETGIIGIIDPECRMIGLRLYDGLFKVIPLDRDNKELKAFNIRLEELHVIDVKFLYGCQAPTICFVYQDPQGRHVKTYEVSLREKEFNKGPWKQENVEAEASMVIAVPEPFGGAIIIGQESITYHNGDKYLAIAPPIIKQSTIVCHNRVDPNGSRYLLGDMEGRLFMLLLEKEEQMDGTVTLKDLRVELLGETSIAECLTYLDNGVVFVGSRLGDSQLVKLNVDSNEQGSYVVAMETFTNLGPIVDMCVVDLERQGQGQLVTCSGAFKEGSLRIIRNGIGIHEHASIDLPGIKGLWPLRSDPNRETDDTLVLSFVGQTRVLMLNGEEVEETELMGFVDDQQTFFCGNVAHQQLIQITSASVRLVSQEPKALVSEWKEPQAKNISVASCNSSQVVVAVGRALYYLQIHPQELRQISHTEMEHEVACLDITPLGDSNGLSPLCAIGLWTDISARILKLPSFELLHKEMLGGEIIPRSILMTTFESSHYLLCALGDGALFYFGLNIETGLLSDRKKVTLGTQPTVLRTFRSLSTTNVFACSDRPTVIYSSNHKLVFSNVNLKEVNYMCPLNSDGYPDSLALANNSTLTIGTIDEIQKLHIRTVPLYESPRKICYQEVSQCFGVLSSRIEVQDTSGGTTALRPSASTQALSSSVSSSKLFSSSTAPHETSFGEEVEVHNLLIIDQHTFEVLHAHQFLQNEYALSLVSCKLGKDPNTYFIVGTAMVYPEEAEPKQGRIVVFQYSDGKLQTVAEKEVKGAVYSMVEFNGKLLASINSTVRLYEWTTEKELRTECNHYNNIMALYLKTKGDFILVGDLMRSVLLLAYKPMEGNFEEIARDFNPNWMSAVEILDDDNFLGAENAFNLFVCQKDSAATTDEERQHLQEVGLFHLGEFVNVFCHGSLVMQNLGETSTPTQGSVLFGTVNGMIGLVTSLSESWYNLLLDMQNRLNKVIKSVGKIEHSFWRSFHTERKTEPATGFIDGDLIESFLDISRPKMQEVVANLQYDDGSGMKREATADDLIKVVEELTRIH
# [2] = target: T1, WT IKZF3-derived degron fused to EGFP (Homo sapiens, UniProt Q96SW2+Q9UKT9); assay: as above; assay type: cell-based; conditions: Jurkat
# T1 construct: Plasmid: pLVX-Sprout-IKZF3 130-189aa (WT); expressed in transfected cells
# T1 sequence (Q9UKT9 130-189): as the sequence (Q9UKT9 130-189 Q147W/N149E/Q150I/S154K) above, with W18Q, E20N, I21Q, K25S counted along it
# T1 sequence (Q96SW2 whole entry, the tested form may be a part): as the sequence (Q96SW2 whole entry, the tested form may be a part) above
# T1 sequence (Q16531 whole entry partner, the tested form may be a part): as the sequence (Q16531 whole entry partner, the tested form may be a part) above
# [3] = tested on: library of 8380 IKZF3 degrons fused to EGFP in Jurkat cells; assay: Pooled mutant ZF degron library screen (FACS EGFPlow vs EGFP+, NGS), 18 h; assay type: cell-based, human;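 on logFC: Log2 fold change of EGFPlow over EGFP+ representation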
# [4] = target: T2, endogenous IKZF1 in Jurkat cells (Homo sapiens, UniProt Q13422+Q96SW2); assay: Endogenous IKZF1 immunostaining, fluorescent antibody flow cytometry assay; assay type: cell-based; conditions: 18 h
# T2 construct: endogenous in cells; host or cells: Jurkat (untransduced for immunostaining; WEIS-EGFP-transduced for the blot)
# T2 sequence (Q13422 whole entry): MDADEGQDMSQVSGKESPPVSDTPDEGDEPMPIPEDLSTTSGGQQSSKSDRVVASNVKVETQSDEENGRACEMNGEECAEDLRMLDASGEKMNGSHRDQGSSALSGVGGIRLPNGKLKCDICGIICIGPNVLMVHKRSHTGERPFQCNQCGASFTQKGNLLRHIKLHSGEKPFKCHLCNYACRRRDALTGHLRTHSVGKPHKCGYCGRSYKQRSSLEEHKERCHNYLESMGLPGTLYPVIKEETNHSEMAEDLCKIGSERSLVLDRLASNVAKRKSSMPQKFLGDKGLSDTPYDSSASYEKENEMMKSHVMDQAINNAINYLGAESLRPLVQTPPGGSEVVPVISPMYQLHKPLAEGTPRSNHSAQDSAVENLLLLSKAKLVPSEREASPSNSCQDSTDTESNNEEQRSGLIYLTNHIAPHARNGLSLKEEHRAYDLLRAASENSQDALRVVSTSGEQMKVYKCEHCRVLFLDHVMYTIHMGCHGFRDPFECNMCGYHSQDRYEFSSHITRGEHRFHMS
# T2 sequence (Q96SW2 whole entry): as the sequence (Q96SW2 whole entry, the tested form may be a part) above
# T2 sequence (Q16531 whole entry partner): as the sequence (Q16531 whole entry partner, the tested form may be a part) above
# Procedure: As we sought to screen a large number of mutant ZF degrons with different mutation combinations, we pursued a library screen approach similar to that previously employed by Sievers et al. and Jan et al. , Only the most promising compounds from the original set of 36 were used for the library screen. To help narrow the candidates, a subset of compounds was tested for endogenous IKZF1 degradation in Jurkat cells using a fluorescent antibody flow cytometry assay (Figure S5). […] Thalidomide and lenalidomide were also included as controls.
# Endogenous IKZF1 Immunostaining
# 37 °C and 5% CO2. Following incubation, cells were stained with LIVE/DEAD™ Fixable Aqua Dead Cell Stain (Thermo) diluted 1000X in PBS for 30 min at room temperature and then incubated with Human TruStain FcX block (Biolegend) diluted 40X in PBS + 1% FBS (Gibco) for 10 min at room temperature. Intranuclear staining of IKZF1 was carried out using the Transcription Factor Buffer Set (BD Bioscience) according to the manufacturer's protocol and staining with IKZF1 AF488 antibody (clone R32-1149, BD Bioscience) diluted 40X for 30 minutes at room temperature. Cells were acquired on a Cytoflex S (Beckman Coulter) and data analysed using FlowJo 10.8.1 9 (BD).
# [5] = target: T3, endogenous IKZF3 in Jurkat cells (Homo sapiens, UniProt Q96SW2+Q9UKT9); assay: Western blot for endogenous IKZF3; assay type: cell-based; conditions: 18 h
# T3 construct: endogenous in cells; host or cells: Jurkat (transduced with ZF-EGFP constructs, or untransduced)
# T3 sequence (Q9UKT9 whole entry): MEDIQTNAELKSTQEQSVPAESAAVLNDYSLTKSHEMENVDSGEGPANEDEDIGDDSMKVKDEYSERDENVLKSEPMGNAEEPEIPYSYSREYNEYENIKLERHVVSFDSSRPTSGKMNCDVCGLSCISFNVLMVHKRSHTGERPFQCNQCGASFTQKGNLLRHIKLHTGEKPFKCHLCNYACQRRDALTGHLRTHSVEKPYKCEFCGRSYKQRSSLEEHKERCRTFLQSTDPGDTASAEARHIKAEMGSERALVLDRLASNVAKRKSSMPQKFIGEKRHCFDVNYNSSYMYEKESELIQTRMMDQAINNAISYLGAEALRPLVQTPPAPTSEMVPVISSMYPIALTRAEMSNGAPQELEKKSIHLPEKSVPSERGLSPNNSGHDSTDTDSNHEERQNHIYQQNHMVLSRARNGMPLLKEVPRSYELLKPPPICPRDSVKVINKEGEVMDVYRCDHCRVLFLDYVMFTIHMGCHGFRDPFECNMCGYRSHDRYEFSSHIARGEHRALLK
# T3 sequence (Q96SW2 whole entry): as the sequence (Q96SW2 whole entry, the tested form may be a part) above
# T3 sequence (Q16531 whole entry partner): as the sequence (Q16531 whole entry partner, the tested form may be a part) above
# [6] = target: T4, Q147A mutant degron (ANQS) fused to EGFP (Homo sapiens, UniProt Q96SW2+Q9UKT9, Q147A); assay: Ratiometric EGFP:mCherry flow cytometry degradation assay, 18 h; assay type: cell-based
# T4 construct: pLVX-Sprout-IKZF3 130-189aa Q147A (ANQS); expressed in transfected cells
# T4 sequence (Q9UKT9 130-189 Q147A): as the sequence (Q9UKT9 130-189 Q147W/N149E/Q150I/S154K) above, with W18A, E20N, I21Q, K25S counted along it
# T4 sequence (Q96SW2 whole entry, the tested form may be a part): as the sequence (Q96SW2 whole entry, the tested form may be a part) above
# T4 sequence (Q16531 whole entry partner, the tested form may be a part): as the sequence (Q16531 whole entry partner, the tested form may be a part) above
structure (smiles),measurement,setting,value
CC(C)(C)c1ccc2c(c1)C(=O)N(C1CCC(=O)NC1=O)C2=O (stereo not shown) [Compound 19],Selectivity (WT/mutant),[1]; DC50(WT)/DC50(WEIK),18.1
same,DC50,"[1]; WEIK, Jurkat, 18 h",42 nM
same,pDC50,"[1]; WEIK, Jurkat, 18 h",7.38
same,Degradation pDC50 WT,[2]; Fig 2B,6.05
same,DC50,"[2]; WT degron, Fig 5A",759 nM
same,pDC50,"[2]; WT degron, Fig 5A",6.12
same,Log2FC,"[3]; WT degron, residues 146/147/149/150/152/153/154/155/167: FQNQGASFL",-1.8291 and -1.83
same,logFC,[3]; degron residues 146/147/149/150/152/153/154/155/167: FADIGAAFL,3.42
same,logFC,[3]; degron residues 146/147/149/150/152/153/154/155/167: FADIGACFL,2.8476
same,logFC,[3]; degron residues 146/147/149/150/152/153/154/155/167: FADIGADFL,0.3339
same,logFC,[3]; degron residues 146/147/149/150/152/153/154/155/167: FADIGAEFL,0.9661
same,Log2FC,[3]; degron residues 146/147/149/150/152/153/154/155/167: FAEIGAAFL,3.8965
same,Log2FC,[3]; degron residues 146/147/149/150/152/153/154/155/167: FAEIGARFL,3.8372
same,Log2FC,[3]; degron residues 146/147/149/150/152/153/154/155/167: FAEVGAKFL (AEVK),3.9176 and 3.92 and 3.918
same,Log2FC,[3]; degron residues 146/147/149/150/152/153/154/155/167: FAEVGARFL,3.9084
same,Log2FC,[3]; degron residues 146/147/149/150/152/153/154/155/167: FAEVGASFL,3.8698
same,Log2FC,[3]; degron residues 146/147/149/150/152/153/154/155/167: FANQGASFL (ANQS),-0.98
same,Log2FC,[3]; degron residues 146/147/149/150/152/153/154/155/167: FAPIGASFL (APIS),3.73
same,Log2FC,[3]; degron residues 146/147/149/150/152/153/154/155/167: FFDIGAPFL (FDIP),3.9195 and 3.92 and 3.919
same,Log2FC,[3]; degron residues 146/147/149/150/152/153/154/155/167: FFEVGAPFL (FEVP),3.9979 and 4.00 and 3.998
same,Log2FC,[3]; degron residues 146/147/149/150/152/153/154/155/167: FFPIGAPFL,3.9164
same,Log2FC,[3]; degron residues 146/147/149/150/152/153/154/155/167: FGEVGARFL,3.8587
same,Log2FC,[3]; degron residues 146/147/149/150/152/153/154/155/167: FGPIGACFL,3.9002
same,Log2FC,[3]; degron residues 146/147/149/150/152/153/154/155/167: FGPVGACFL,3.8841
same,Log2FC,[3]; degron residues 146/147/149/150/152/153/154/155/167: FGPVGAMFL,3.8585
same,Log2FC,[3]; degron residues 146/147/149/150/152/153/154/155/167: FHEIGAPFL (HEIP),4.0013 and 4.00 and 4.001
same,Log2FC,[3]; degron residues 146/147/149/150/152/153/154/155/167: FWEIGACFL,3.8152
same,Log2FC,[3]; degron residues 146/147/149/150/152/153/154/155/167: FWEIGAKFL (WEIK),3.9155 and 3.96 and 3.955
same,Log2FC,[3]; degron residues 146/147/149/150/152/153/154/155/167: FYEIGAKFL,3.9035
same,Log2FC,[3]; degron residues 146/147/149/150/152/153/154/155/167: FYEIGAPFL,3.8608
same,Log2FC,[3]; degron residues 146/147/149/150/152/153/154/155/167: FYEVGAAFL,3.8726
same,Log2FC,[3]; degron residues 146/147/149/150/152/153/154/155/167: FYNIGAPFL,3.8168
same,Log2FC,[3]; degron residues 146/147/149/150/152/153/154/155/167: FYPIGAPFL,3.8626
same,degradation of endogenous IKZF1,[4],did not induce degradation of endogenous IKZF1
same,endogenous IKZF3 levels (Western blot),[5]; transduced Jurkat cells,remained unaffected
same,degradation of endogenous IKZF3 (Western blot),[5]; untransduced Jurkat cells,do not induce degradation of endogenous IKZF3
same,DC50,"[6]; ANQS, Jurkat, 18 h, Fig 5A",537 nM
same,pDC50,"[6]; ANQS, Jurkat, 18 h, Fig 5A",6.27
same,Selectivity (WT/mutant),"[6]; DC50(WT)/DC50(ANQS), Fig 5A",1.4
same,Dmax,"[6]; Jurkat, 18 h, Fig 2B, read-out: DMax Q147A/%",87%
